Data taken from patent US6355799B1, “Substituted benzene compounds, process for their preparation, and herbicidal and defoliant compositions containing them” (ISK Americas Incorporated, priority 1997, dated 2002).

How the values were obtained:
Assay type in all cases: in vivo
[1] = test system: upland rice (Oryza sp., var. Tebonnet, RICE); assay: Post-emerge test, crop safety; settings: post-emerge, 14 days after application, rating scale 0-100
Outline: (§1)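 Applied at 15–1000 g ai/ha from acetone in 187 l/ha spray volume. Post-emergence applications included 0.25% v/v non-ionic surfactant and reached plants sown 8–21 days before. Pre-emergence applications were incorporated by surface watering. Efficacy or crop damage was rated on a 0–100 scale after 14 days.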

[2] = test system: field corn (Zea mays L., var. Dekalb 535, CORN); assay: Post-emerge test, crop safety; settings: post-emerge, 14 days after application, rating scale 0-100
Outline: as §1

[3] = test system: redroot pigweed (Amaranthus retroflexus, AMARE); assay: Pre-emerge test, greenhouse herbicide activity screening; settings: rated 14 days after application, 0 = no damage, 100 = complete death
Outline: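 Sandy loam pots; pre-emerge: sown 1 d pre-spray, surface-watered after, then bottom-watered. Post-emerge: sown 8–21 d before, 2–3 leaf stage, + 0.25% v/v NIS, bottom-watered. Acetone, 187 l/ha track spray, 15–1000 g ai/ha. 0–100 injury score, day 14.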

[4] = test system: barnyardgrass (Echinochloa crus-galli, ECHCG); assay: as above; settings: rated 14 days after application, 0 = no damage, 100 = complete death
Outline: as §1

[5] = test system: large crabgrass (Digitaria sanguinalis, DIGSA); assay: as above; settings: rated 14 days after application, 0 = no damage, 100 = complete death
Outline: as §1

[6] = test system: green foxtail (Setaria viridis, SETVI); assay: as above; settings: rated 14 days after application, 0 = no damage, 100 = complete death
Outline: as §1

[7] = test system: lambsquarters (Chenopodium album, CHEAL); assay: as above; settings: rated 14 days after application, 0 = no damage, 100 = complete death
Outline: as §1

[8] = test system: ivyleaf morningglory (Ipomoea hederacea, IPOHE); assay: as above; settings: rated 14 days after application, 0 = no damage, 100 = complete death
Outline: as §1

[9] = test system: johnsongrass (Sorghum halepense, SORHA); assay: as above; settings: rated 14 days after application, 0 = no damage, 100 = complete death
Outline: as §1

[10] = test system: common ragweed (Ambrosia artemisizfolia L., AMBEL); assay: as above; settings: rated 14 days after application, 0 = no damage, 100 = complete death
Outline: as §1

[11] = test system: sicklepod (Cassia obtusifolia, CASOB); assay: as above; settings: rated 14 days after application, 0 = no damage, 100 = complete death
Outline: as §1

[12] = test system: velvetleaf (Abutilon theophrasti, ABUTH); assay: as above; settings: rated 14 days after application, 0 = no damage, 100 = complete death
Outline: as §1

[13] = test system: upland rice (Oryza sp., var. Tebonnet, RICE); assay: Pre-emerge test, crop safety; settings: rated 14 days after application, 0 = no damage, 100 = complete death
Outline: (§2)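 Plants grown in 10 cm pots of sandy loam mix received acetone-dissolved compounds through a moving flat-fan nozzle. Doses ranged from 15 to 1000 g ai/ha. Pre-emerge pots were seeded one day earlier, post-emerge pots 8–21 days earlier. Fourteen days on, each pot was graded 0–100 for damage.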

[14] = test system: field corn (Zea mays L., var. Dekalb 535, CORN); assay: Pre-emerge test, crop safety; settings: rated 14 days after application, 0 = no damage, 100 = complete death
Outline: as §2

[15] = test system: barnyardgrass (Echinochloa crus-galli, ECHCG); assay: Post-emerge test, greenhouse herbicide activity screening; settings: post-emerge, 14 days after application, rating scale 0-100
Outline: as §2

[16] = test system: large crabgrass (Digitaria sanguinalis, DIGSA); assay: as above; settings: post-emerge, 14 days after application, rating scale 0-100
Outline: as §2

[17] = test system: green foxtail (Setaria viridis, SETVI); assay: as above; settings: post-emerge, 14 days after application, rating scale 0-100
Outline: as §2

[18] = test system: lambsquarters (Chenopodium album, CHEAL); assay: as above; settings: post-emerge, 14 days after application, rating scale 0-100
Outline: as §2

[19] = test system: redroot pigweed (Amaranthus retroflexus, AMARE); assay: as above; settings: post-emerge, 14 days after application, rating scale 0-100
Outline: as §2

[20] = test system: ivyleaf morningglory (Ipomoea hederacea, IPOHE); assay: as above; settings: post-emerge, 14 days after application, rating scale 0-100
Outline: as §2

[21] = test system: johnsongrass (Sorghum halepense, SORHA); assay: as above; settings: post-emerge, 14 days after application, rating scale 0-100
Outline: as §2

[22] = test system: common ragweed (Ambrosia artemisizfolia L., AMBEL); assay: as above; settings: post-emerge, 14 days after application, rating scale 0-100
Outline: as §2

[23] = test system: sicklepod (Cassia obtusifolia, CASOB); assay: as above; settings: post-emerge, 14 days after application, rating scale 0-100
Outline: as §2

[24] = test system: velvetleaf (Abutilon theophrasti, ABUTH); assay: as above; settings: post-emerge, 14 days after application, rating scale 0-100
Outline: as §2

COc1c(Cl)cc(F)c(-n2c(=O)cc(C(F)(F)F)n(C)c2=O)c1NC(=O)c1ccc(Br)cc1 [2-61]
phytotoxicity rating RICE ([1]; 63 g ai/ha): 60 | phytotoxicity rating RICE ([1]; 250 g ai/ha): 90 | phytotoxicity rating CORN ([2]; 63 g ai/ha): 35 | phytotoxicity rating CORN ([2]; 250 g ai/ha): 90 | Pre-emerge Herbicidal Activity, phytotoxicity rating (0-100), AMARE ([3]; 63 g ai/ha): 100 | Pre-emerge Herbicidal Activity, phytotoxicity rating (0-100), AMARE ([3]; 250 g ai/ha): 100 | Pre-emerge Herbicidal Activity, phytotoxicity rating (0-100), ECHCG ([4]; 63 g ai/ha): 85 | Pre-emerge Herbicidal Activity, phytotoxicity rating (0-100), ECHCG ([4]; 250 g ai/ha): 100 | Pre-emerge Herbicidal Activity, phytotoxicity rating (0-100), DIGSA ([5]; 63 g ai/ha): 90 | Pre-emerge Herbicidal Activity, phytotoxicity rating (0-100), DIGSA ([5]; 250 g ai/ha): 100 | Pre-emerge Herbicidal Activity, phytotoxicity rating (0-100), SETVI ([6]; 63 g ai/ha): 10 | Pre-emerge Herbicidal Activity, phytotoxicity rating (0-100), SETVI ([6]; 250 g ai/ha): 100 | Pre-emerge Herbicidal Activity, phytotoxicity rating (0-100), CHEAL ([7]; 63 g ai/ha): 100 | Pre-emerge Herbicidal Activity, phytotoxicity rating (0-100), CHEAL ([7]; 250 g ai/ha): 100 | Pre-emerge Herbicidal Activity, phytotoxicity rating (0-100), IPOHE ([8]; 63 g ai/ha): 90 | Pre-emerge Herbicidal Activity, phytotoxicity rating (0-100), IPOHE ([8]; 250 g ai/ha): 100 | Pre-emerge Herbicidal Activity, phytotoxicity rating (0-100), SORHA ([9]; 63 g ai/ha): 80 | Pre-emerge Herbicidal Activity, phytotoxicity rating (0-100), SORHA ([9]; 250 g ai/ha): 100 | Pre-emerge Herbicidal Activity, phytotoxicity rating (0-100), AMBEL ([10]; 63 g ai/ha): 80 | Pre-emerge Herbicidal Activity, phytotoxicity rating (0-100), AMBEL ([10]; 250 g ai/ha): 100 | Pre-emerge Herbicidal Activity, phytotoxicity rating (0-100), CASOB ([11]; 63 g ai/ha): 40 | Pre-emerge Herbicidal Activity, phytotoxicity rating (0-100), CASOB ([11]; 250 g ai/ha): 100 | Pre-emerge Herbicidal Activity, phytotoxicity rating (0-100), ABUTH ([12]; 63 g ai/ha): 100 | Pre-emerge Herbicidal Activity, phytotoxicity rating (0-100), ABUTH ([12]; 250 g ai/ha): 100 | Pre-emerge phytotoxicity rating (0-100), crop damage, RICE ([13]; 63 g ai/ha): 75 | Pre-emerge phytotoxicity rating (0-100), crop damage, RICE ([13]; 250 g ai/ha): 95 | Pre-emerge phytotoxicity rating (0-100), crop damage, CORN ([14]; 63 g ai/ha): 10 | Pre-emerge phytotoxicity rating (0-100), crop damage, CORN ([14]; 250 g ai/ha): 95 | phytotoxicity rating ECHCG ([15]; 63 g ai/ha): 40 | phytotoxicity rating ECHCG ([15]; 250 g ai/ha): 70 | phytotoxicity rating DIGSA ([16]; 63 g ai/ha): 20 | phytotoxicity rating DIGSA ([16]; 250 g ai/ha): 50 | phytotoxicity rating SETVI ([17]; 63 g ai/ha): 60 | phytotoxicity rating SETVI ([17]; 250 g ai/ha): 90 | phytotoxicity rating CHEAL ([18]; 63 g ai/ha): 100 | phytotoxicity rating CHEAL ([18]; 250 g ai/ha): 100 | phytotoxicity rating AMARE ([19]; 63 g ai/ha): 100 | phytotoxicity rating AMARE ([19]; 250 g ai/ha): 100 | phytotoxicity rating IPOHE ([20]; 63 g ai/ha): 100 | phytotoxicity rating IPOHE ([20]; 250 g ai/ha): 100 | phytotoxicity rating SORHA ([21]; 63 g ai/ha): 20 | phytotoxicity rating SORHA ([21]; 250 g ai/ha): 70 | phytotoxicity rating AMBEL ([22]; 63 g ai/ha): 100 | phytotoxicity rating AMBEL ([22]; 250 g ai/ha): 95 | phytotoxicity rating CASOB ([23]; 63 g ai/ha): 100 | phytotoxicity rating CASOB ([23]; 250 g ai/ha): 100 | phytotoxicity rating ABUTH ([24]; 63 g ai/ha): 100 | phytotoxicity rating ABUTH ([24]; 250 g ai/ha): 100
